# Experimental data reported in ChEMBL document CHEMBL3351986, “Probing linker design in citric acid-ciprofloxacin conjugates” (2014).
# Test system: Stenotrophomonas maltophilia
# Experiment: Ratio of compound MIC to ciprofloxacin MIC for Stenotrophomonas maltophilia N1127 after 18 hrs by micro dilution method
# Type: functional
# Conditions: not given
row,SMILES,Ratio
1,O=C(O)CC(O)(CC(=O)N1CCN(c2cc3c(cc2F)c(=O)c(C(=O)O)cn3C2CC2)CC1)C(=O)O (stereo unspecified),10.5

# Test system: Burkholderia cepacia
# Experiment: Ratio of compound MIC to ciprofloxacin MIC for Burkholderia cepacia BIG 118 after 18 hrs by micro dilution method
# Type: functional
# Conditions: not given
row,SMILES,Ratio
1,O=C(O)CC(O)(CC(=O)N1CCN(c2cc3c(cc2F)c(=O)c(C(=O)O)cn3C2CC2)CC1)C(=O)O (stereo unspecified),41.8

# Test system: Burkholderia cepacia
# Experiment: Antimicrobial activity against Burkholderia cepacia BIG 9 NCTC 10744 after 18 hrs by micro dilution method
# Type: functional
# Conditions: BIG 9 NCTC 10744, 18 h
row,MIC,SMILES
1,16 µg/mL,O=C(O)CC(O)(CC(=O)N1CCN(c2cc3c(cc2F)c(=O)c(C(=O)O)cn3C2CC2)CC1)C(=O)O (stereo unspecified)

# Test system: Pseudomonas aeruginosa
# Experiment: Antimicrobial activity against Pseudomonas aeruginosa BIG 63 after 18 hrs by micro dilution method
# Type: functional
# Conditions: BIG 63, 18 h
row,MIC,SMILES
1,4 µg/mL,O=C(O)CC(O)(CC(=O)N1CCN(c2cc3c(cc2F)c(=O)c(C(=O)O)cn3C2CC2)CC1)C(=O)O (stereo unspecified)

# Test system: Escherichia coli
# Experiment: Antimicrobial activity against Escherichia coli BIG 0046 after 18 hrs by micro dilution method
# Type: functional
# Conditions: BIG 0046, 18 h
row,MIC,SMILES
1,> 36 µg/mL,O=C(O)CC(O)(CC(=O)N1CCN(c2cc3c(cc2F)c(=O)c(C(=O)O)cn3C2CC2)CC1)C(=O)O (stereo unspecified)

# Test system: Pseudomonas aeruginosa
# Experiment: Ratio of compound MIC to ciprofloxacin MIC for Pseudomonas aeruginosa BIG 37 clinical isolate after 18 hrs by micro dilution method
# Type: functional
# Conditions: not given
row,SMILES,Ratio
1,O=C(O)CC(O)(CC(=O)N1CCN(c2cc3c(cc2F)c(=O)c(C(=O)O)cn3C2CC2)CC1)C(=O)O (stereo unspecified),5.2

# Test system: Staphylococcus epidermidis
# Experiment: Antimicrobial activity against Staphylococcus epidermidis NCTC 11047 after 18 hrs by micro dilution method
# Type: functional
# Conditions: NCTC 11047, 18 h
row,MIC,SMILES
1,16 µg/mL,O=C(O)CC(O)(CC(=O)N1CCN(c2cc3c(cc2F)c(=O)c(C(=O)O)cn3C2CC2)CC1)C(=O)O (stereo unspecified)

# Test system: Staphylococcus aureus
# Experiment: Antimicrobial activity against Staphylococcus aureus NCTC 13142 after 18 hrs by micro dilution method
# Type: functional
# Conditions: NCTC 13142, 18 h
row,MIC,SMILES
1,8 µg/mL,O=C(O)CC(O)(CC(=O)N1CCN(c2cc3c(cc2F)c(=O)c(C(=O)O)cn3C2CC2)CC1)C(=O)O (stereo unspecified)

# Test system: Stenotrophomonas maltophilia
# Experiment: Antimicrobial activity against Stenotrophomonas maltophilia N1124 after 18 hrs by micro dilution method
# Type: functional
# Conditions: N1124, 18 h
row,MIC,SMILES
1,> 36 µg/mL,O=C(O)CC(O)(CC(=O)N1CCN(c2cc3c(cc2F)c(=O)c(C(=O)O)cn3C2CC2)CC1)C(=O)O (stereo unspecified)

# Test system: Burkholderia cepacia
# Experiment: Antimicrobial activity against Burkholderia cepacia BIG 121 after 18 hrs by micro dilution method
# Type: functional
# Conditions: BIG 121, 18 h
row,MIC,SMILES
1,> 36 µg/mL,O=C(O)CC(O)(CC(=O)N1CCN(c2cc3c(cc2F)c(=O)c(C(=O)O)cn3C2CC2)CC1)C(=O)O (stereo unspecified)

# Test system: Staphylococcus haemolyticus
# Experiment: Ratio of compound MIC to ciprofloxacin MIC for Staphylococcus haemolyticus NCTC 11042 after 18 hrs by micro dilution method
# Type: functional
# Conditions: not given
row,SMILES,Ratio
1,O=C(O)CC(O)(CC(=O)N1CCN(c2cc3c(cc2F)c(=O)c(C(=O)O)cn3C2CC2)CC1)C(=O)O (stereo unspecified),83.8

# Test system: Pseudomonas aeruginosa
# Experiment: Antimicrobial activity against Pseudomonas aeruginosa BIG 37 clinical isolate after 18 hrs by micro dilution method
# Type: functional
# Conditions: BIG 37, 18 h
row,MIC,SMILES
1,16 µg/mL,O=C(O)CC(O)(CC(=O)N1CCN(c2cc3c(cc2F)c(=O)c(C(=O)O)cn3C2CC2)CC1)C(=O)O (stereo unspecified)

# Test system: Staphylococcus aureus
# Experiment: Antimicrobial activity against Staphylococcus aureus HG-1 after 18 hrs by micro dilution method
# Type: functional
# Conditions: HG-1, 18 h
row,MIC,SMILES
1,> 36 µg/mL,O=C(O)CC(O)(CC(=O)N1CCN(c2cc3c(cc2F)c(=O)c(C(=O)O)cn3C2CC2)CC1)C(=O)O (stereo unspecified)

# Test system: Burkholderia cepacia
# Experiment: Ratio of compound MIC to ciprofloxacin MIC for Burkholderia cepacia BIG 117 after 18 hrs by micro dilution method
# Type: functional
# Conditions: not given
row,SMILES,Ratio
1,O=C(O)CC(O)(CC(=O)N1CCN(c2cc3c(cc2F)c(=O)c(C(=O)O)cn3C2CC2)CC1)C(=O)O (stereo unspecified),10.5

# Test system: Staphylococcus aureus
# Experiment: Ratio of compound MIC to ciprofloxacin MIC for Staphylococcus aureus NCTC 13142 after 18 hrs by micro dilution method
# Type: functional
# Conditions: not given
row,SMILES,Ratio
1,O=C(O)CC(O)(CC(=O)N1CCN(c2cc3c(cc2F)c(=O)c(C(=O)O)cn3C2CC2)CC1)C(=O)O (stereo unspecified),10.5

# Test system: Staphylococcus aureus
# Experiment: Ratio of compound MIC to ciprofloxacin MIC for Staphylococcus aureus BIG 52 after 18 hrs by micro dilution method
# Type: functional
# Conditions: not given
row,SMILES,Ratio
1,O=C(O)CC(O)(CC(=O)N1CCN(c2cc3c(cc2F)c(=O)c(C(=O)O)cn3C2CC2)CC1)C(=O)O (stereo unspecified),20.9

# Test system: Staphylococcus aureus
# Experiment: Antimicrobial activity against Staphylococcus aureus BIG 52 after 18 hrs by micro dilution method
# Type: functional
# Conditions: BIG 52, 18 h
row,MIC,SMILES
1,16 µg/mL,O=C(O)CC(O)(CC(=O)N1CCN(c2cc3c(cc2F)c(=O)c(C(=O)O)cn3C2CC2)CC1)C(=O)O (stereo unspecified)

# Test system: Burkholderia cepacia
# Experiment: Ratio of compound MIC to ciprofloxacin MIC for Burkholderia cepacia BIG 9 NCTC 10744 after 18 hrs by micro dilution method
# Type: functional
# Conditions: not given
row,SMILES,Ratio
1,O=C(O)CC(O)(CC(=O)N1CCN(c2cc3c(cc2F)c(=O)c(C(=O)O)cn3C2CC2)CC1)C(=O)O (stereo unspecified),20.9

# Test system: Burkholderia cepacia
# Experiment: Antimicrobial activity against Burkholderia cepacia BIG 119 after 18 hrs by micro dilution method
# Type: functional
# Conditions: BIG 119, 18 h
row,MIC,SMILES
1,> 36 µg/mL,O=C(O)CC(O)(CC(=O)N1CCN(c2cc3c(cc2F)c(=O)c(C(=O)O)cn3C2CC2)CC1)C(=O)O (stereo unspecified)

# Test system: Staphylococcus aureus
# Experiment: Antimicrobial activity against Staphylococcus aureus NCTC 13143 after 18 hrs by micro dilution method
# Type: functional
# Conditions: NCTC 13143, 18 h
row,MIC,SMILES
1,> 36 µg/mL,O=C(O)CC(O)(CC(=O)N1CCN(c2cc3c(cc2F)c(=O)c(C(=O)O)cn3C2CC2)CC1)C(=O)O (stereo unspecified)

# Test system: Staphylococcus epidermidis
# Experiment: Ratio of compound MIC to ciprofloxacin MIC for Staphylococcus epidermidis NCTC 11047 after 18 hrs by micro dilution method
# Type: functional
# Conditions: not given
row,SMILES,Ratio
1,O=C(O)CC(O)(CC(=O)N1CCN(c2cc3c(cc2F)c(=O)c(C(=O)O)cn3C2CC2)CC1)C(=O)O (stereo unspecified),83.8
